Experimental data taken from patent publication US12303554B2, “Use of ultrarapid acting insulin” (MannKind Corporation, priority 2008, dated 2025).
Like-named read-outs stand apart in the source and are kept apart here.

What was measured:
[1] = cited from earlier work
[2] = 52-week clinical trial in type 1 diabetes: basal insulin + prandial TI Inhalation Powder vs basal insulin + SC insulin aspart; type: in vivo, human
From the text: A Prospective, Multi-Center, Open-Label, Randomized, Controlled Clinical Trial Comparing the Efficacy and Safety in Subjects with Type 1 Diabetes Receiving SC Basal Insulin and Prandial Inhalation of Insulin-FDKP Versus SC Basal and Prandial Insulin Over a 52-Week Treatment Period and a 4-Week Follow-up
This was a prospective, multi-country, multicenter, open label, randomized, controlled clinical trial comparing glycemic control in subjects with type 1 diabetes receiving basal insulin and prandial insulin-FDKP (TI) Inhalation Powder (TI Inhalation Powder group) with subjects receiving basal insulin and SC rapid-acting insulin aspart (comparator group). This study included a 52-week treatment phase and a 4-week follow-up phase. During the 4-week follow-up phase, pulmonary function and select clinical laboratory assessments were scheduled.
The study began with enrollment at Week −3. Subjects received a complete battery of safety and eligibility assessments, including HbA1c and fasting plasma glucose (FPG).
At Week −1, subjects were randomized to one of the following 2 treatments: • Basal insulin+prandial TI Inhalation Powder • Basal insulin+prandial SC rapid-acting insulin
At Week −1, subjects again completed the first three components of the Insulin Treatment Questionnaire (ITQ) for the purpose of assessing test-retest reliability only). After completing the questionnaire, subjects randomized to the TI Inhalation Powder group were trained on the MEDTONE® Inhaler using TECHNOSPHERE®/insulin (insulin-FDKP) inhalation powder; subjects in the comparator group were trained in the use of the NOVOLOG® pens; all subjects were trained in administration of LANTUS®. Additionally, all subjects were trained on a blood glucose monitoring (HBGM) meter provided at the beginning of the trial and diary and received diabetes education. Any training was repeated at Week 0, if needed.
At the beginning of the treatment phase, subjects had several titration/dose evaluation visits to adjust insulin therapy. Titration visits occurred once a week for the first 4 weeks. During Weeks 4 through 10, there were three telephone “visits” (at Week 6, Week 8, and Week 10) to titrate dose, if necessary. However, dose titration was allowed throughout the trial.
All subjects completed a 7-point blood glucose profile on any 3 days during the week immediately preceding each visit from Week 0 to Week 52. The 7 time points included samples from before breakfast and 2 hours after breakfast, before the mid-day meal and 2 hours after the mid-day meal, before the evening meal and 2 hours after the evening meal and at bedtime (7 time points a day, over 3 days). These blood glucose (BG) values were recorded in the HBGM diary that was collected at clinic visits. The diaries for Weeks 4 through 10 (during dose titration) which were discussed over the telephone were collected at the next office visits.
A meal challenge test was performed at Week 4 (during dose titration), Week 26, and Week 52. Meal challenge venous blood sampling times were: −30, 0, 30, 60, 90, 105, 120, 180, 240, 300, and 360 minutes. Blood glucose (BG) was also measured using HBGM glucose meters to aid the Investigator in treatment decisions and values were obtained at −30, 0, 60, and 120 minutes during the meal challenge.
Treatments for glycemic control used in the trial were the following: prandial insulin-FDKP (TI) inhalation powder, prandial insulin aspart, and basal insulin glargine. Subjects assigned to the TI Inhalation Powder group (TI Inhalation Powder in combination with basal insulin therapy) received sc basal insulin glargine (LANTUS®) once daily (at bedtime) and inhaled TI Inhalation Powder 3 to 4 times a day, immediately before main meals or a snack as based upon clinical need. Adjustment of the TI Inhalation Powder dose and frequency of use to greater than 3 times a day was at the discretion of the Investigator. […]

[3] = type: in vivo, human; conditions: 10 U lispro
Protocol: Following the completion of the meal challenge, the data was analyzed as per the statistical analysis plan. […] The study was amended (A1) and included 12 subjects (10 were reenrolled from the first meal challenge), and only two treatments, which were 10 U lispro and 60 and 90 U TI. The doses were selected based on the relative bioavailability observed following the first meal challenge (OP), where under an assumption of linear kinetics, 10 U lispro and 60 U TI would result in similar exposure. The 90 U dose group was included to assess the effect of the highest dose group of TI studied in Phase 3 trials. Six of the 12 subjects received 60 U TI and the other 6 subjects received 90 U TI. All 12 subjects received 10 U lispro in a crossover fashion. […] Blood glucose concentrations were measured at regular intervals from arterialized venous blood samples. […] EGP was determined by measurement of 6,6-^2H2 glucose applying the modified calculations for the non-steady state ([…], and D. T. Stein. Calculating glucose fluxes during meal tolerance test: a new computational approach. Am. J. Physiol Endocrinol. Metab 293 (2):[…]-[…], 2007). C-peptide concentrations were measured pre- and post-dose to assess endogenous insulin secretion. In addition, glucagon and free fatty acid concentrations were also determined.

[4] = type: in vivo, human
Protocol: The insulin-FDKP formulation is administered to the subjects by oral inhalation using a MEDTONE® dry powder inhaler (MannKind Corp.). Methods and results below are described in terms of the Original Protocol (OP), which includes the meal challenge in 18 subjects with three treatments (EXUBERA®, lispro and TI) and Amendment 1 (A1), which includes 12 subjects treated with only TI and lispro. […] The subjects were screened and evaluated before, during and after the experiments and their data analyzed as described below. Subjects were selected based on several key inclusion criteria, including, male and female, having ≥18 and ≤70 years of age with clinical diagnosis of type 2 diabetes mellitus for ≥12 months. The subjects selected for the study also had stable anti-diabetic regimen with insulin for the previous 3 months; HbA1c ≤8.5%; Body Mass Index (BMI) between ≤34 kg/m^2 and ≥25 kg/m^2; urine cotinine ≤100 ng/mL; […] Criteria for exclusion from the study also included unstable diabetes control and/or evidence of serious complications of diabetes (e.g., autonomic neuropathy); serum creatinine >1.8 mg/dL in female subjects and >2.0 mg/dL in male subjects. Other clinically important pulmonary disease was confirmed by documented history or pulmonary function testing. Under OP, the study was planned to be a randomized, open label, 3-way cross-over study. […] At this analysis all patients at least had completed the meal challenge visits and only those data have been used. The screening visit(s) (V1) occurred 1 to 21 days before the first treatment visit (V2) with 7 to 21 days elapsing between treatment-visits (V2, V3, and V4) for the meal challenge test. A minimum of 8 weeks elapsed between V4 and the next treatment visit, (V6). An additional safety visit (V5) was scheduled 1-3 days prior to the first of 3 glucose clamp procedures (V6). The glucose clamp procedure occurred at 3 visits, Visits V6, V7, and V8, with 7 to 21 days elapsing between the visits. […] Each treatment visit during the meal challenge had the subjects hospitalized in the clinical unit the night before initiation of treatment. […] Each subject followed the same randomization order for the glucose-clamp procedures as for the meal challenge tests. During the study, periodic blood draws for determination of pharmacokinetic and/or pharmacodynamic parameters, and safety were taken beginning at 12 hours prior to onset of the treatment regimens and meal challenge, and thereafter for a period of 8 hours. […] Meal Challenge Test: BOOST PLUS® (12 fl. oz.) consisting of 67.5 g carbohydrate, 21 g protein, 21 g fat, energy content 540 kcal was used for the meal challenge test. The BOOST PLUS® was enriched with U-^13C-glucose to determine the amount of absorbed glucose. Concurrent enriched continuous infusion of 6,6-^2H2 glucose was used to assess endogenous glucose production EGP. […] Under OP, the dose for insulin lispro was selected based on information obtained from the regulatory label. The dose selected for EXUBERA® was obtained by means of back calculation of the most commonly used dose information presented to the FDA Advisory Committee in the EXUBERA® Briefing Document. […] Blood glucose concentrations were measured at regular intervals from arterialized venous blood samples. The amount of orally absorbed glucose was estimated by determination of U-^13C-glucose. EGP was determined by measurement of 6,6-^2H2 glucose applying the modified calculations for the non-steady state ([…], and D. T. Stein. Calculating glucose fluxes during meal tolerance test: a new computational approach. Am. J. Physiol Endocrinol. Metab 293 (2):[…]-[…], 2007). C-peptide concentrations were measured pre- and post-dose to assess endogenous insulin secretion. In addition, glucagon and free fatty acid concentrations were also determined.

[5] = 52 weeks, + basal insulin glargine
[6] = 52 weeks, + basal insulin, baseline 187.6 (SD 85.1) TI, 180.8 (SD 86.9) comparator
[7] = 45 U insulin-FDKP, 4 mg EXUBERA, 12 U lispro, FIG. 6

Substance: insulin glulisine: rapid acting insulin analog
- Range of Tmax ([1]; type 1 and type 2 diabetes populations, prescribing information): 40 to 120 min

Substance: insulin aspart
- Percentage of subjects whose HbA1c level decreased to ≤6.5% [2, 5]: 7.31%
- Percentage of subjects whose HbA1c level decreased to ≤7.0% [2, 5]: 15.98%
- Percentage of subjects whose HbA1c level decreased to ≤8.0% [2, 5]: 56.16%
- Mean FPG at the end of the treatment period [2, 6]: 161.3 (SD 68.2) mg/dL
- Mean decrease in fasting plasma glucose (FPG) over the treatment period [2, 6]: 23.4 (SD 103.1) mg/dL
- HbA1c at Week 14 ([2]; + basal insulin glargine, baseline 8.41 (SD 0.92) TI arm, 8.48 (SD 0.97) insulin aspart arm): 8.07 (SD 1.09) %
- Average body weight gain ([2]; over the 52-week treatment period, + basal insulin): 1.4 kg
- Median Tmax ([1]; subjects with type 1 diabetes, prescribing information): 40 to 50 min

Substance: Regular human insulin: regular human insulin preparations for subcutaneous injection, considered short acting
- Duration of significant elevation or activity ([1]; subcutaneous injection): 10 to 12 h

Substance: insulin lispro: rapid acting insulin analog, subcutaneously administered (Eli Lilly & Co.)
- Time of peak glucose disappearance rate after dosing ([3]; 60 U and 90 U insulin-FDKP, FIG. 11): about 100 minutes
- Time of peak inhibition of endogenous glucose production following dosing ([3]; 60 U or 90 U insulin-FDKP (two treatments, dose assignment not stated), FIG. 10): about 100 minutes
- Time post-treatment at which (further) glucose infusion was needed to remain above 90 mg/dL ([4]; 45 U insulin-FDKP inhaled, 4 mg EXUBERA inhaled, 12 U lispro sc at onset of meal): ~3 h
- Time of peak inhibition of endogenous glucose production after treatment ([4]; 45 U insulin-FDKP, 4 mg EXUBERA, 12 U lispro, FIG. 5): about 80 minutes
- Time of peak glucose disappearance rate after dosing [4, 7]: about 120 minutes
- Time post dosing at which glucose disappearance rate became substantial / departed from baseline [4, 7]: about 30 minutes
- Total insulin exposure, greater than following 45 U insulin-FDKP (TI) or 4 mg EXUBERA ([4]; human, in vivo): approximately 40%
- Insulin concentration tmax (median) ([4]; human, in vivo, 4 mg): 75 min
